Values quoted from earlier work in US9758545B2, “Sensor with a scaffold having changeable conformations” (UNIVERSITÉ DE FRIBOURG, priority 2010, dated 2017).

Details: antibiotics integrated into implant cements

Structure (SMILES): CN[C@H](CC(C)C)C(=O)N[C@H]1C(=O)N[C@@H](CC(N)=O)C(=O)N[C@H]2C(=O)N[C@H]3C(=O)NC(C(=O)N[C@@H](C(=O)O)c4cc(O)cc(O)c4-c4cc3ccc4O)[C@H](O)c3ccc(c(Cl)c3)Oc3cc2cc(c3O[C@@H]2OC(CO)[C@@H](O)C(O)C2O[C@H]2CC(C)(N)[C@H](O)C(C)O2)Oc2ccc(cc2Cl)[C@H]1O (stereo partly shown) [Vancomycin]
- temperature sensitive above: above 25 °C
